Here are results for four compounds from patent publication US11370804B2, “Complex of gadolinium and a chelating ligand derived from a diastereoisomerically enriched PCTA and preparation and purification process” (GUERBET, priority 2020, dated 2022).

Data set [1] can be described thus: decomplexation kinetics (kinetic inertia) in acidic aqueous solution, pH 1.2, 37° C. The settings on record: same conditions (pH 1.2, 37° C.), comparative. Type of data set: physicochemical. The procedure:
Besides, iso4 is the group of isomers which has the best kinetic inertia (also known as kinetic stability) among the four groups isolated by the inventors. Specifically, the inventors evaluated the kinetic inertia of the four groups of isomers by studying their decomplexation kinetics in acidic aqueous solution (pH=1.2), at 37° C. The half-life time values (T1/2) which were determined for each of the groups of isomers are indicated in table 1 below, the half-life time corresponding to the time after which 50% of the amount of complex initially present has been dissociated, according to the following decomplexation reaction (equation 2): […]

For data set [2] the following is noted: as described in WO 2014/174120 / for comparative purposes; cited from earlier work.

Take `O=C([O-])CN1CCN(CC(=O)[O-])CCN([C@H](CO)[C@H](O)CO)CCN(CC(=O)[O-])CC1.[Gd+3]` (racemic) [gadobutrol]: in data set [1], the kinetic inertia was 18 h. `O=C([O-])CN1CCN(CC(=O)[O-])CCN(CC(=O)O)CCN(CC(=O)[O-])CC1.[Gd+3]` [DOTA-Gd, gadolinium complex of 1,4,7,10-tetraazacyclododecane-N,N′,N″,N′″-tetraacetic acid]: the kinetic inertia in data set [1] was 96 h. In addition, the “log (Ktherm), stability constant” value in data set [2] is reported as 25.6. In the case of `CNC(=O)CN(CCN(CCN(CC(=O)[O-])CC(=O)NC)CC(=O)[O-])CC(=O)[O-].[Gd+3]` [gadodiamide], the “kinetic inertia (dissociation, in words)” value in data set [1] is “dissociate instantaneously”.

`O=C([O-])CN(CCN(CC(=O)[O-])CC(=O)O)CCN(CC(=O)[O-])CC(=O)O.[Gd+3]` [gadopentetate]: the “kinetic inertia (dissociation, in words)” value in data set [1] is on record as “dissociate instantaneously”.
